Experimental data from US5491135A (priority 1993, dated 1996).
Converted amounts (≈) assume the structure as drawn. “And” between values parts separate entries of the source, which are not always exact repeats. Equal entries are not always repeated. Where two headings read alike, the source gives them in different places.

Columns and labels:
[1] = system: L-aspartic acid transcarbamylase (ATCase); conditions: cited from earlier work
Vero cells = conditions: uninfected
Yellow fever virus = assay: microbe, parasite or virus in culture; conditions: Vero
[2] = system: duck hepatitis B virus (DHBV); assay: Duck hepatitis B (DHBV) in primary duck hepatocyte culture; format: cell-based
Description: Using the duck hepatitis model (DHBV), primary duck hepatocyte cells were treated with various concentrations of PALA (disodium salt) and evaluated for cytopathic effect. In addition, viral DNA replication was assessed using "slot" dot blots. […] These experiments were performed three times with confirmatory results.

Sandfly fever virus = conditions: Vero
Herpes-1 = assay: In vitro antiviral assay; format: cell-based; conditions: Vero
[3] = Cytotoxicity in human foreskin fibroblasts; conditions: hff cells
[4] = used alone; cited from earlier work
vaccinia virus [5] = conditions: for Vaccinia Lesion Score: per monkey
herpes virus-2 = assay: In vitro antiviral assay; format: cell-based
Vaccinia virus [6] = assay: microbe, parasite or virus in culture; format: cell-based, vaccinia virus (Lederle vaccine); conditions: Vero
[7] = day 8, PALA 125 mg/kg day 1 & 7
[8] = day 10, PALA 125 mg/kg day 1 & 7
[9] = day 10, PALA 50, rifampicin 10 mg/kg/d or both
[10] = day 13, PALA 125 mg/kg day 1 & 7
[11] = day 13, PALA 50, rifampicin 10 mg/kg/d or both

Compound: O=C(O)C[C@H](NC(=O)CP(=O)(O)O)C(=O)O [PALA]
- Ka, avidity relative to carbamyl phosphate [1]: 1000 ×
- TC50 (Vero cells): > 320 mg/L
- CC50 (in vitro; uninfected vero cells): > 320 mg/L
- CC50 (in vitro; vero cells): > 320 mg/L
- IC50 (Yellow fever virus): 16.6 mg/L (≈ 65.1 µM)
- inhibition at 0.5 µM ([2]; Duck hepatitis B virus, Hepatocyte): 95%
- toxicity ([2]; high concentrations): little or no toxicity
- IC50 (Sandfly fever virus): 14.9 mg/L (≈ 58.4 µM)
- TI (TC50/IC50) (Sandfly fever virus; 50% inhibition): > 15.32 and > 21.54
- IC50 (Herpes-1): no inhibitory activity and None
- CC50 [3]: > 320 mg/L
- clinical efficacy in cancer [4]: relatively nonefficacious
- gross pathology (vaccinia virus [5]; PALA 125 mg/kg i.v. bolus): dark red discoloration of the liver
- lesion development (vaccinia virus [5]; PALA 125 mg/kg, days 1 and 7): greater than what was seen in monkeys treated daily with PALA at a lower dose
- virus titers in skin (vaccinia virus [5]; PALA 125 mg/kg, days 1 and 7): Higher titers
- lesion development (vaccinia virus [5]; PALA 50, rifampicin 10 or both, mg/kg/day i.v.): effective in reducing lesion development and size
- Weight (vaccinia virus [5]; day 0, PALA 125 mg/kg day 1 & 7): 3.2 kg and 3.4 kg and 4.4 kg
- Weight (vaccinia virus [5]; day 0, PALA 50, rifampicin 10 mg/kg/d or both): 2.4 kg and 3.4 kg and 2.6 kg
- Vaccinia Lesion Score, group mean (vaccinia virus [5]; day 3, PALA 125 mg/kg day 1 & 7): 0.5
- Vaccinia Lesion Score, group mean (vaccinia virus [5]; day 3, PALA 50, rifampicin 10 mg/kg/d or both): 0.1
- Vaccinia Lesion Score, group mean (vaccinia virus [5]; day 6, PALA 125 mg/kg day 1 & 7): 0.7
- Vaccinia Lesion Score, group mean (vaccinia virus [5]; day 6, PALA 50, rifampicin 10 mg/kg/d or both): 0.6
- Vaccinia Lesion Score, group mean (vaccinia virus [5]; day 7, PALA 125 mg/kg day 1 & 7): 0.9
- Vaccinia Lesion Score, group mean (vaccinia virus [5]; day 7, PALA 50, rifampicin 10 mg/kg/d or both): 0.5
- Vaccinia Lesion Score, group mean (vaccinia virus [5]; [7]): 1.3
- Vaccinia Lesion Score (vaccinia virus [5]; [7]): 0.7 and 1.8
- Vaccinia Lesion Score, group mean (vaccinia virus [5]; day 8, PALA 50, rifampicin 10 mg/kg/d or both): 0.5
- Vaccinia Lesion Score, group mean (vaccinia virus [5]; day 9, PALA 125 mg/kg day 1 & 7): 1.2
- Vaccinia Lesion Score, group mean (vaccinia virus [5]; day 9, PALA 50, rifampicin 10 mg/kg/d or both): 0.3
- Vaccinia Lesion Score, group mean (vaccinia virus [5]; [8]): 0
- Vaccinia Lesion Score (vaccinia virus [5]; [8]): 0
- Vaccinia Lesion Score, group mean (vaccinia virus [5]; [9]): 0
- Weight (vaccinia virus [5]; [9]): 2.2 kg and 3.2 kg and 2.4 kg
- Vaccinia Lesion Score (vaccinia virus [5]; [9]): 0
- Vaccinia Lesion Score, group mean (vaccinia virus [5]; [10]): 0.5
- Vaccinia Lesion Score (vaccinia virus [5]; [10]): 0.3 and 0.7
- Vaccinia Lesion Score, group mean (vaccinia virus [5]; [11]): 0
- Vaccinia Lesion Score (vaccinia virus [5]; [11]): 0
- Weight (vaccinia virus [5]; day 14, PALA 125 mg/kg day 1 & 7): 3.2 kg and 4.4 kg
- Weight (vaccinia virus [5]; day 14, PALA 50, rifampicin 10 mg/kg/d or both): 2.0 kg and 3.2 kg and 2.4 kg
- Weight (vaccinia virus [5]; day 21, PALA 125 mg/kg day 1 & 7): 3.4 kg and 4.2 kg
- Weight (vaccinia virus [5]; day 21, PALA 50, rifampicin 10 mg/kg/d or both): 2.0 kg and 3.4 kg and 2.6 kg
- signs of toxicity (vaccinia virus [5]; except one monkey at PALA 125 mg/kg bolus): No appreciable signs of toxicity
- Titer of vaccinia virus in skin biopsy (vaccinia virus [5]; head prints day 6, PALA 125 mg/kg day 1 & 7): 1.3 × 10^5 PFU/ml and 1.8 × 10^10 PFU/ml
- inhibitory activity (herpes virus-2): no inhibitory activity
- IC50 (Vaccinia virus [6]; Orthopoxvirus vaccinia): 10 mg/L (≈ 39.2 µM)
- TI (Vaccinia virus [6]): 32.0
